Source: patent US10092570B2 (Incyte Corporation, priority 2011, dated 2018)
Structures can show the parent of a compound that is named as a salt.

system: Pfeiffer cell line (diffuse large B cell lymphoma); test: Example B2: Pfeiffer cell proliferation assay; type: cell-based; conditions: Homo sapiens, Pfeiffer, Pfeiffer cells, [3H]-thymidine incorporation
Protocol: Pfeiffer cell line (diffuse large B cell lymphoma) are purchased from ATCC (Manassas, Va.) and maintained in the culture medium recommended (RPMI and 10% FBS). To measure the anti-proliferation activity of the compounds, the Pfeiffer cells are plated with the culture medium (2×10^3 cells/well/per 200 μl) into 96-well ultra-low binding plates (Corning, Corning, N.Y.), in the presence or absence of a concentration range of test compounds. After 3-4 days, [^3H]-thymidine (1 μCi/well) (PerkinElmer, Boston, Mass.) in PBS is then added to the cell culture for an additional 12 hours before the incorporated radioactivity is separated by filtration with water through GF/B filters (Packard Bioscience, Meridenj, Conn.) and measured by liquid scintillation counting with a TopCount (Packard Bioscience).

| SMILES | IC50 [nM] |
| --- | --- |
| CCOc1c(C(C)n2nc(C(F)F)c3c(N)ncnc32)cc(Cl)c(F)c1C1CN(CCO)C1 (racemic) [Example 152, 2-[3-(3-{1-[4-Amino-3-(difluoromethyl)-1H-pyrazolo[3,4-d]pyrimidin-1-yl]ethyl}-5-chloro-2-ethoxy-6-fluorophenyl)azetidin-1-yl]ethanol] | < 10 |
| CCOc1c(C(C)n2nc(C)c3c(N)ncnc32)cc(Cl)c(C)c1-c1cncc(C(=O)N(C)C)c1 (single isomer, unassigned) [Example 196, 5-(3-(1-(4-amino-3-methyl-1H-pyrazolo[3,4-d]pyrimidin-1-yl)ethyl)-5-chloro-2-ethoxy-6-methylphenyl)-N,N-dimethylnicotinamide] | < 10 |
| CCOc1c(C(C)n2nc(C)c3c(N)ncnc32)cc(Cl)c(C)c1-c1cncc(S(C)(=O)=O)c1 (single isomer, unassigned) [Example 198] | < 10 |
| CCOc1c(C(C)n2nc(C)c3c(N)ncnc32)cc(Cl)c(C#N)c1C1CN(CC(C)(C)O)C1 (single isomer, unassigned) [Example 222, 4-[1-(4-Amino-3-methyl-1H-pyrazolo[3,4-d]pyrimidin-1-yl)ethyl]-6-chloro-3-ethoxy-2-[1-(2-hydroxy-2-methylpropyl)azetidin-3-yl]benzonitrile] | < 10 |
| CCOc1c(C(C)n2nc(C)c3c(N)ncnc32)cc(Cl)c(C#N)c1C1CN(S(C)(=O)=O)C1 (single isomer, unassigned) [Example 248, 4-[1-(4-Amino-3-methyl-1H-pyrazolo[3,4-d]pyrimidin-1-yl)ethyl]-6-chloro-3-ethoxy-2-[1-(methylsulfonyl)azetidin-3-yl]benzonitrile] | < 10 |
| CCOc1c(C(C)n2nc(C)c3c(N)ncnc32)cc(Cl)c(F)c1C1CNC(=O)C1 (single isomer, unassigned) [Example 346, 4-{3-[1-(4-amino-3-methyl-1H-pyrazolo[3,4-d]pyrimidin-1-yl)ethyl]-5-chloro-2-ethoxy-6-fluorophenyl}pyrrolidin-2-one] | < 10 |
| CCOc1c(C(C)n2nc(C)c3c(N)ncnc32)cc(Cl)c(C#N)c1C1CNC(=O)C1 (single isomer, unassigned) [Example 349, 4-[1-(4-amino-3-methyl-1H-pyrazolo[3,4-d]pyrimidin-1-yl)ethyl]-6-chloro-3-ethoxy-2-(5-oxopyrrolidin-3-yl)benzonitrile] | < 10 |
| CCOc1c(C(C)n2nc(C)c3c(N)ncnc32)cc(Cl)c(F)c1C1COC(=O)N1 (single isomer, unassigned) [Example 354, 4-{3-[1-(4-amino-3-methyl-1H-pyrazolo[3,4-d]pyrimidin-1-yl)ethyl]-5-chloro-2-ethoxy-6-fluorophenyl}-1,3-oxazolidin-2-one] | < 10 |

Next, values leading:

| IC50 [nM] | SMILES |
| --- | --- |
| < 10 | COc1c(C(C)n2nc(C(F)F)c3c(N)ncnc32)cc(Cl)c(F)c1C1CN(C)C1 (racemic) [Example 75, 1-{1-[5-Chloro-4-fluoro-2-methoxy-3-(1-methylazetidin-3-yl)phenyl]ethyl}-3-(difluoromethyl)-1H-pyrazolo[3,4-d]pyrimidin-4-amine] |
| < 10 | CCOc1c(C(C)n2nc(C)c3c(N)ncnc32)cc(Cl)c(F)c1C1CN(CCO)C1 (racemic) [Example 144, 2-(3-{3-[1-(4-Amino-3-methyl-1H-pyrazolo[3,4-d]pyrimidin-1-yl)ethyl]-5-chloro-2-ethoxy-6-fluorophenyl}azetidin-1-yl)ethanol] |
| < 10 | CCOc1c(C(C)n2nc(C)c3c(N)ncnc32)cc(Cl)c(F)c1C1CN(CC(N)=O)C1 (racemic) [Example 148, 2-(3-{3-[1-(4-Amino-3-methyl-1H-pyrazolo[3,4-d]pyrimidin-1-yl)ethyl]-5-chloro-2-ethoxy-6-fluorophenyl}azetidin-1-yl)acetamide] |
| < 10 | COc1c(C(C)n2nc(C)c3c(N)ncnc32)cc(Cl)c(F)c1C1CN(C[C@H](C)O)C1 (single isomer, unassigned) [68 (1st peak)] |
| < 10 | COc1c(C(C)n2nc(C)c3c(N)ncnc32)cc(Cl)c(C)c1C1CN(CC(N)=O)C1 (single isomer, unassigned) [Example 111, 2-(3-{3-[1-(4-Amino-3-methyl-1H-pyrazolo[3,4-d]pyrimidin-1-yl)ethyl]-5-chloro-2-methoxy-6-methylphenyl}azetidin-1-yl)acetamide] |
| 10 to 50 | COc1c(C(C)n2nc(C)c3c(N)ncnc32)cc(Cl)c(C)c1C1CN(C(=O)[C@@H](C)O)C1 (single isomer, unassigned) [Example 121, trifluoroacetate] |
| < 10 | COc1c(C(C)n2nc(C)c3c(N)ncnc32)cc(Cl)c(C)c1-c1cncc(C(=O)N2CC(C#N)C2)c1 (single isomer, unassigned) [Example 177, 1-[(5-{3-[1-(4-amino-3-methyl-1H-pyrazolo[3,4-d]pyrimidin-1-yl)ethyl]-5-chloro-2-methoxy-6-methylphenyl}pyridin-3-yl)carbonyl]azetidine-3-carbonitrile] |
| < 10 | CCOc1c(C(C)n2nc(C)c3c(N)ncnc32)cc(Cl)c(C#N)c1C1CN(CC)C1 (single isomer, unassigned) [Example 214, 4-[1-(4-Amino-3-methyl-1H-pyrazolo[3,4-d]pyrimidin-1-yl)ethyl]-6-chloro-3-ethoxy-2-(1-ethylazetidin-3-yl)benzonitrile] |
| < 10 | CCOc1c(C(C)n2nc(C)c3c(N)ncnc32)cc(Cl)c(C#N)c1C1CN(C(C)C)C1 (single isomer, unassigned) [Example 215, 4-[1-(4-Amino-3-methyl-1H-pyrazolo[3,4-d]pyrimidin-1-yl)ethyl]-6-chloro-3-ethoxy-2-(1-isopropylazetidin-3-yl)benzonitrile] |
| < 10 | CCOc1c(C(C)n2nc(C)c3c(N)ncnc32)cc(Cl)c(C#N)c1C1CN(C(=O)NC)C1 (single isomer, unassigned) [Example 257, 3-{3-[1-(4-Amino-3-methyl-1H-pyrazolo[3,4-d]pyrimidin-1-yl)ethyl]-5-chloro-6-cyano-2-ethoxyphenyl}-N-methylazetidine-1-carboxamide] |
| < 10 | COc1c(C(C)n2nc(C)c3c(N)ncnc32)cc(Cl)c(C#N)c1C1CN(C(C)C)C1 (single isomer, unassigned) [Example 264, 4-[1-(4-Amino-3-methyl-1H-pyrazolo[3,4-d]pyrimidin-1-yl)ethyl]-6-chloro-2-(1-isopropylazetidin-3-yl)-3-methoxybenzonitrile] |
| < 10 | COc1c(C(C)n2nc(C)c3c(N)ncnc32)cc(Cl)c(C#N)c1C1CN(CC(C)(C)O)C1 (single isomer, unassigned) [Example 271, 4-[1-(4-Amino-3-methyl-1H-pyrazolo[3,4-d]pyrimidin-1-yl)ethyl]-6-chloro-2-[1-(2-hydroxy-2-methylpropyl)azetidin-3-yl]-3-methoxybenzonitrile] |
| < 10 | COc1c(C(C)n2nc(C)c3c(N)ncnc32)cc(Cl)c(Cl)c1C1CN(CCO)C1 (single isomer, unassigned) [Example 300, 2-(3-{3-[1-(4-Amino-3-methyl-1H-pyrazolo[3,4-d]pyrimidin-1-yl)ethyl]-5,6-dichloro-2-methoxyphenyl}azetidin-1-yl)ethano] |
| < 10 | COc1c(C(C)n2nc(C)c3c(N)ncnc32)cc(Cl)c(Cl)c1C1CN(CC(C)(C)O)C1 (single isomer, unassigned) [Example 303, 1-(3-{3-[1-(4-Amino-3-methyl-1H-pyrazolo[3,4-d]pyrimidin-1-yl)ethyl]-5,6-dichloro-2-methoxyphenyl}azetidin-1-yl)-2-methylpropan-2-ol] |

same assay, conditions: Pfeiffer cells, [3H]-thymidine incorporation

| IC50 [nM] | SMILES |
| --- | --- |
| < 10 | CCOc1c(C(C)n2nc(C)c3c(N)ncnc32)cc(Cl)c(F)c1C1CNC(=O)C1 (single isomer, unassigned) [Example 347, 4-{3-[1-(4-amino-3-methyl-1H-pyrazolo[3,4-d]pyrimidin-1-yl)ethyl]-5-chloro-2-ethoxy-6-fluorophenyl}pyrrolidin-2-one] |

target: PI3Kδ (p110δ/p85α) (Homo sapiens (Human), UniProt O00329); test: Example A3: PI3Kδ scintillation proximity assay; type: biochemical; conditions: assay not specified
Method in brief: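 p110δ/p85α (4 nM) phosphorylated 20 μM PIP2 with 20 μM ATP plus [γ-33P]ATP in MOPS pH 6.7, MgCl2, DTT, CHAPS, 0.5% DMSO, at RT. Stopped with EDTA/excess ATP, product captured on WGA SPA beads overnight and counted; IC50 from percent control activity versus log inhibitor.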

PI3Kδ (p110δ/p85α), sequence (O00329 whole entry): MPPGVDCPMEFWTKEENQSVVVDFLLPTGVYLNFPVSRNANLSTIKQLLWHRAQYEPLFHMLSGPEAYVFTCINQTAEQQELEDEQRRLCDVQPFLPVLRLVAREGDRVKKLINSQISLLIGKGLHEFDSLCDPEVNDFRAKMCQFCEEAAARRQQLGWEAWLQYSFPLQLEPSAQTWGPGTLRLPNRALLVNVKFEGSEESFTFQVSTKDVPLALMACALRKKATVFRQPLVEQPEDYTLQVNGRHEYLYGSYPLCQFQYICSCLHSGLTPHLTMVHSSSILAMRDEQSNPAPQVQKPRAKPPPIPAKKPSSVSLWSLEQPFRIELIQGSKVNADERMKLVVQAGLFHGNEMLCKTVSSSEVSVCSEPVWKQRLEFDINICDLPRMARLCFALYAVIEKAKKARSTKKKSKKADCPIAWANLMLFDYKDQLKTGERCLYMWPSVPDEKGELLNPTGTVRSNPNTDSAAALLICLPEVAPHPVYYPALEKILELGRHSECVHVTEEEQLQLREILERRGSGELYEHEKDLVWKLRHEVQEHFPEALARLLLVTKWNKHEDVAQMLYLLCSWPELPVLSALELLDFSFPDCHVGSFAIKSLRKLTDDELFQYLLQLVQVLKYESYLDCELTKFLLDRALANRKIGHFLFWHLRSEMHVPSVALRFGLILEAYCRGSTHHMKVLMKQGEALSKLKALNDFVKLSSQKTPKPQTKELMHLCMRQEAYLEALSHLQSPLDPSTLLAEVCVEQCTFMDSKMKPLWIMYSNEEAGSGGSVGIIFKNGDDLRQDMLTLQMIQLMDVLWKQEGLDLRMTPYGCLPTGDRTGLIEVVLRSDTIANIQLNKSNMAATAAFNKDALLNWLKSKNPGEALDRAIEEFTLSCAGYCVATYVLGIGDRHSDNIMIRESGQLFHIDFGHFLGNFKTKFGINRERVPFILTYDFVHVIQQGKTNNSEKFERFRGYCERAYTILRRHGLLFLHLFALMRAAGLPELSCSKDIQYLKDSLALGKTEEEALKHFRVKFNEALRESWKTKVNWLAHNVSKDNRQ
PI3Kδ (p110δ/p85α), sequence (P27986 whole entry partner): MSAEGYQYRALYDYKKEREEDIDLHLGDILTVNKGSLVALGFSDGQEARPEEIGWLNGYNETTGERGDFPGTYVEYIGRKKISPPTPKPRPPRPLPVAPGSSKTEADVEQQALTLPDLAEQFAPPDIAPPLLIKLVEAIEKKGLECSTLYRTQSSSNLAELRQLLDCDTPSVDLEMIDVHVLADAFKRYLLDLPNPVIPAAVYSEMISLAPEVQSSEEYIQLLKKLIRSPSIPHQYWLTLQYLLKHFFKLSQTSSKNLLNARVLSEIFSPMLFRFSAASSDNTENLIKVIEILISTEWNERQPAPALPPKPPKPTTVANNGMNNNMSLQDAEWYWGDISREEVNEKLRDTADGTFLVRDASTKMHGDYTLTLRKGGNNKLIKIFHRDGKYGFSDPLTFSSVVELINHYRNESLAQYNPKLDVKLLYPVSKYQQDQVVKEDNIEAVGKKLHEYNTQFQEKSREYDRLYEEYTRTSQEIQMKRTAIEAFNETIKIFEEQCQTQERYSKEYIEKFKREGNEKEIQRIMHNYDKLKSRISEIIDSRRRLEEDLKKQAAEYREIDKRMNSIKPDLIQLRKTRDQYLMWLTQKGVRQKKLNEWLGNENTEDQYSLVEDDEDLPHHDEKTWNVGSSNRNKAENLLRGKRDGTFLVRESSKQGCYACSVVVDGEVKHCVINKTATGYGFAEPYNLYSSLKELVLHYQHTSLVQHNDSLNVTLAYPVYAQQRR

| relative activity among the four separated diastereomers (peaks 1-4) | SMILES |
| --- | --- |
| most active enantiomer | CCOc1c(C(C)n2nc(C)c3c(N)ncnc32)cc(Cl)c(F)c1C1CNC(=O)O1 (stereo not drawn) [Example 357, 5-{3-[1-(4-amino-3-methyl-1H-pyrazolo[3,4-d]pyrimidin-1-yl)ethyl]-5-chloro-2-ethoxy-6-fluorophenyl}-1,3-oxazolidin-2-one] |

same assay, conditions: scintillation proximity assay, 20 μM ATP, 4 nM PI3Kδ; read-out: PI3Kδ SPA IC50

| IC50 [nM] | SMILES |
| --- | --- |
| < 10 | COc1c(C(C)n2cc(-c3cn[nH]c3)c(=O)c3c(N)ncnc32)cc(Cl)c(C)c1-c1ccc(C(=O)N(C)C)nc1 (stereo not drawn) [Example 359, 5-(3-{1-[4-Amino-5-oxo-6-(1H-pyrazol-4-yl)pyrido[2,3-d]pyrimidin-8(5H)-yl]ethyl}-5-chloro-2-methoxy-6-methylphenyl)-N,N-dimethylpyridine-2-carboxamide] |
| < 10 | COc1c(C(C)n2cc(C)c(=O)c3c(N)ncnc32)cc(Cl)c(C)c1-c1ccc(C(=O)N(C)C)nc1 (stereo not drawn) [Example 360, 5-{3-[1-(4-Amino-6-methyl-5-oxopyrido[2,3-d]pyrimidin-8(5H)-yl)ethyl]-5-chloro-2-methoxy-6-methylphenyl}-N,N-dimethylpyridine-2-carboxamide bis(trifluoroacetate)] |
| < 10 | COc1c([C@H](C)n2nc(C)c3c(N)ncnc32)cc(Cl)c(C#N)c1C1CN(C[C@@H](C)O)C1 [Example 362, 4-((S)-1-(4-amino-3-methyl-1H-pyrazolo[3,4-d]pyrimidin-1-yl)ethyl)-6-chloro-2-(1-((R)-2-hydroxypropyl)azetidin-3-yl)-3-methoxybenzonitrile] |
